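How tested: cells in 96-well plates exposed to compound for 48 hours at five concentrations. GI50 = concentration required for 50% inhibition of growth. TGI marks complete inhibition of growth.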
Assays:
Experiment in all cases: DTP human tumour cell line panel, 48 h
[1] = system: DU-145 prostate
[2] = system: SNB-19 CNS
[3] = system: HCC-2998 colon
[4] = system: IGROV1 ovarian
[5] = system: SN12C renal
[6] = system: A549 NSCLC
[7] = system: SK-MEL-5 melanoma
[8] = system: BT-549 breast
[9] = system: SF-539 CNS
[10] = system: EKVX NSCLC

| SMILES | GI50 [1] [µM] | TGI [1] [µM] | GI50 [2] [µM] | TGI [2] [µM] | GI50 [3] [µM] | TGI [3] [µM] | GI50 [4] [µM] | TGI [4] [µM] | GI50 [5] [µM] | TGI [5] [µM] | GI50 [6] [µM] | TGI [6] [µM] | GI50 [7] [µM] | TGI [7] [µM] | GI50 [8] [µM] | TGI [8] [µM] | GI50 [9] [µM] | TGI [9] [µM] | TGI [10] [µM] |
| --- | --- | --- | --- | --- | --- | --- | --- | --- | --- | --- | --- | --- | --- | --- | --- | --- | --- | --- | --- |
| Cc1cc(-c2ccccc2)c(C)n1Cc1ccc(Cl)cc1 | 6.87 | > 100 | 36.4 | > 100 | 15.1 | 93.7 | 5.21 | > 100 | 5.78 | > 100 | 5.73 | > 100 | 4.23 | 66.8 | 5.5 | > 100 | 2.8 | 12.1 | – |
| COc1cc2ccc(CC#N)cc2cc1OC | – | – | – | > 100 | – | – | – | – | – | > 100 | – | > 100 | – | > 100 | – | – | – | > 100 | > 100 |
| C(=C1\CCC/C(=C/c2ccccc2)C1=NNc1ccccc1)/c1ccccc1 | – | – | – | > 100 | – | > 100 | – | > 100 | – | > 100 | – | > 100 | – | > 100 | – | – | – | > 100 | > 100 |
| CNC1=C(C)C(=O)C(C)=C(C(C)(C)CC(=O)n2cc(F)c(=O)[nH]c2=O)C1=O | – | – | – | > 100 | – | > 100 | – | > 100 | – | > 100 | – | > 100 | – | > 100 | – | – | – | > 100 | > 100 |
| O=C(N/C(=C\c1ccc([N+](=O)[O-])cc1)c1nc2[nH]c(=S)[nH]c(=O)c2[nH]1)c1ccccc1 | – | – | – | > 100 | – | > 100 | – | > 100 | – | > 100 | – | > 100 | – | > 100 | – | – | – | > 100 | > 100 |
| O=C1C2Cc3ccccc3CN2C(=O)N1CN1CCN(CN2C(=O)C3Cc4ccccc4CN3C2=O)CC1 (stereo unspecified) | – | – | – | > 100 | – | > 100 | – | > 100 | – | > 100 | – | > 100 | – | > 100 | – | – | – | > 100 | > 100 |
| COc1cc(NCC(C#N)C#N)ccc1N=Nc1ccc([N+](=O)[O-])cc1 | – | – | – | > 100 | – | > 100 | – | > 100 | – | > 100 | – | > 100 | – | > 100 | – | – | – | > 100 | > 100 |
| CCCNC(=O)c1cc2ccccc2cc1C(=O)OC | – | – | – | > 100 | – | > 100 | – | > 100 | – | > 100 | – | > 100 | – | > 100 | – | – | – | > 100 | > 100 |
| O=C1Nc2ccccc2C12CC(c1ccccc1)=NN2 (stereo unspecified) | 9.63 | 51.1 | 12.7 | > 100 | 36.1 | > 100 | 5.75 | 75.9 | 7.73 | > 100 | 5.11 | > 100 | 4.81 | > 100 | 6.35 | > 100 | 3.4 | 15 | – |
| CCOC(=O)CNC(SC)=C(C#N)C#N | – | – | – | > 100 | – | > 100 | – | > 100 | – | > 100 | – | > 100 | – | > 100 | – | – | – | > 100 | > 100 |
| O=C1c2c(c3c4ccccc4n4c3c3c2c2ccccc2n3C/C=C\C4)C(=O)N1Cc1ccccc1 | – | – | – | > 100 | – | > 100 | – | > 100 | – | > 100 | – | > 100 | – | > 100 | – | – | – | > 100 | > 100 |
